From ChEMBL document CHEMBL5385907, “Proline-Hinged α-Helical Peptides Sensitize Gram-Positive Antibiotics, Expanding Their Physicochemical Properties to Be Used as Gram-Negative Antibiotics” (J Med Chem, 2024)
Converted amounts (≈) assume the structure as drawn. The source made the active and inactive calls. The calls are words filed in the database; no cut-off is given here. Residues, ends and D or L forms follow the SMILES beside them.

Key:
Acinetobacter baumannii [1] = assay: Antibacterial activity against Acinetobacter baumannii ATCC 17978 assessed as inhibition of bacterial growth incubated for 18 hrs by two fold serial dilution assay; assay type: functional
Escherichia coli [2] = assay: Potentiation of erythromycin induced antibacterial activity against Escherichia coli ATCC 25922 assessed as decrease in bacterial growth at 0.4 uM incubated for 18 hrs in presence of erythromycin by two fold serial dilution assay; assay type: functional, organism-based
[3] = Hydrophobicity of the compound assessed as retention time by reversed-phase HPLC analysis; assay type: physicochemical
Escherichia coli [4] = assay: Potentiation of novobiocin induced antibacterial activity against Escherichia coli ATCC 25922 assessed as decrease in bacterial growth at 0.4 uM incubated for 18 hrs in presence of novobiocin by two fold serial dilution assay; assay type: functional, organism-based
Klebsiella pneumoniae [5] = assay: Potentiation of fusidic acid induced antibacterial activity against Klebsiella pneumoniae ATCC 700603 assessed as decrease in bacterial growth at 0.4 uM incubated for 18 hrs in presence of fusidic acid by two fold serial dilution assay; assay type: functional, organism-based
Klebsiella pneumoniae [6] = assay: Potentiation of erythromycin induced antibacterial activity against Klebsiella pneumoniae ATCC 700603 assessed as decrease in bacterial growth at 0.4 uM incubated for 18 hrs in presence of erythromycin by two fold serial dilution assay; assay type: functional, organism-based
Klebsiella pneumoniae [7] = assay: Antibacterial activity against Klebsiella pneumoniae ATCC 700603 assessed as inhibition of bacterial growth incubated for 18 hrs by two fold serial dilution assay; assay type: functional
Escherichia coli [8] = assay: Potentiation of fusidic acid induced antibacterial activity against Escherichia coli ATCC 25922 assessed as decrease in bacterial growth at 0.4 uM incubated for 18 hrs in presence of fusidic acid by two fold serial dilution assay; assay type: functional, organism-based
Acinetobacter baumannii [9] = assay: Potentiation of fusidic acid induced antibacterial activity against Acinetobacter baumannii ATCC 17978 assessed as decrease in bacterial growth at 0.4 uM incubated for 18 hrs in presence of fusidic acid by two fold serial dilution assay; assay type: functional, organism-based
Escherichia coli [10] = assay: Antibacterial activity against Escherichia coli ATCC 25922 assessed as inhibition of bacterial growth incubated for 18 hrs by two fold serial dilution assay; assay type: functional
Acinetobacter baumannii [11] = assay: Potentiation of novobiocin induced antibacterial activity against Acinetobacter baumannii ATCC 17978 assessed as decrease in bacterial growth at 0.4 uM incubated for 18 hrs in presence of novobiocin by two fold serial dilution assay; assay type: functional, organism-based
Acinetobacter baumannii [12] = assay: Potentiation of erythromycin induced antibacterial activity against Acinetobacter baumannii ATCC 17978 assessed as decrease in bacterial growth at 0.4 uM incubated for 18 hrs in presence of erythromycin by two fold serial dilution assay; assay type: functional, organism-based
[13] = Hemolytic activity in human blood assessed as hemolysis incubated for 6 hrs by microplate reader analysis; assay type: toxicity, tissue-based
Klebsiella pneumoniae [14] = assay: Potentiation of novobiocin induced antibacterial activity against Klebsiella pneumoniae ATCC 700603 assessed as decrease in bacterial growth at 0.4 uM incubated for 18 hrs in presence of novobiocin by two fold serial dilution assay; assay type: functional, organism-based

CC(=O)N[C@@H](CCCCN)C(=O)N[C@@H](CCCCN)C(=O)N[C@@H](CC(C)C)C(=O)N[C@@H](CC(C)C)C(=O)N[C@@H](CCCCN)C(=O)N[C@@H](CC(C)C)C(=O)N[C@@H](CC(C)C)C(=O)N[C@@H](CCCCN)C(=O)N[C@@H](CCCCN)C(=O)N1CCC[C@H]1C(=O)N[C@@H](CC(C)C)C(=O)N[C@@H](CCCCN)C(=O)N[C@@H](CC(C)C)C(=O)N[C@@H](CC(C)C)C(=O)N[C@@H](CCCCN)C(N)=O
MIC (Acinetobacter baumannii [1]): 10 µM (≈ 18.5 µg/mL)
Activity (Escherichia coli [2]): Active
Retention_time [3]: 18.2 min
Activity (Escherichia coli [4]): Active
Activity (Klebsiella pneumoniae [5]): Active
Activity (Klebsiella pneumoniae [6]): Active
MIC (Klebsiella pneumoniae [7]): > 80 µM
Activity (Escherichia coli [8]): Active
Activity (Acinetobacter baumannii [9]): Active
MIC (Escherichia coli [10]): > 80 µM
Activity (Acinetobacter baumannii [11]): Active
Activity (Acinetobacter baumannii [12]): Active
MHC10 [13]: > 160 µM
Activity (Klebsiella pneumoniae [14]): Active

CCCC(=O)N[C@@H](CC(N)=O)C(=O)N[C@@H](Cc1c[nH]cn1)C(=O)N[C@@H](CCCCN)C(=O)N[C@@H](CCCCN)C(=O)N[C@@H](C)C(=O)N[C@@H](CC(C)C)C(=O)N[C@@H](CCCCN)C(=O)N[C@@H](CC(C)C)C(=O)N[C@@H](C)C(=O)N[C@@H](CCCCN)C(=O)N[C@@H](CCCCN)C(=O)N1CCC[C@H]1C(=O)N[C@@H](CC(C)C)C(=O)N[C@@H](CCCCN)C(=O)N[C@@H](CC(C)C)C(=O)N[C@@H](CC(C)C)C(=O)N[C@@H](CCCCN)C(=O)N[C@@H](CS)C(N)=O (HELM PEPTIDE1{[CCCC(=O)[*:2]].N.H.K.K.A.L.K.L.A.K.K.P.L.K.L.L.K.C.[am]}$$$$V2.0)
MIC (Acinetobacter baumannii [1]): > 80 µM
Retention_time [3]: 16.1 min
MIC (Klebsiella pneumoniae [7]): > 80 µM
MIC (Escherichia coli [10]): > 80 µM
MHC10 [13]: > 160 µM

CCCCCC(=O)N[C@@H](CCCCN)C(=O)N[C@@H](CCCCN)C(=O)N[C@@H](C)C(=O)N[C@@H](CC(C)C)C(=O)N[C@@H](CCCCN)C(=O)N[C@@H](CC(C)C)C(=O)N[C@@H](C)C(=O)N[C@@H](CCCCN)C(=O)N[C@@H](CCCCN)C(=O)N1CCC[C@H]1C(=O)N[C@@H](CC(C)C)C(=O)N[C@@H](CCCCN)C(=O)N[C@@H](CC(C)C)C(=O)N[C@@H](CC(C)C)C(=O)N[C@@H](CCCCN)C(N)=O (HELM PEPTIDE1{[CCCCCC(=O)[*:2]].K.K.A.L.K.L.A.K.K.P.L.K.L.L.K.[am]}$$$$V2.0)
MIC (Acinetobacter baumannii [1]): 80 µM (≈ 145 µg/mL)
Retention_time [3]: 17.1 min
MIC (Klebsiella pneumoniae [7]): > 80 µM
MIC (Escherichia coli [10]): > 80 µM
MHC10 [13]: > 160 µM

CCCCCCCCCC(=O)N[C@@H](CCCCN)C(=O)N[C@@H](CCCCN)C(=O)N[C@@H](C)C(=O)N[C@@H](CC(C)C)C(=O)N[C@@H](CCCCN)C(=O)N[C@@H](CC(C)C)C(=O)N[C@@H](C)C(=O)N[C@@H](CCCCN)C(=O)N[C@@H](CCCCN)C(=O)N1CCC[C@H]1C(=O)N[C@@H](CC(C)C)C(=O)N[C@@H](CCCCN)C(=O)N[C@@H](CC(C)C)C(=O)N[C@@H](CC(C)C)C(=O)N[C@@H](CCCCN)C(N)=O (HELM PEPTIDE1{[CCCCCCCCCC(=O)[*:2]].K.K.A.L.K.L.A.K.K.P.L.K.L.L.K.[am]}$$$$V2.0)
MIC (Acinetobacter baumannii [1]): 5 µM (≈ 9.37 µg/mL)
Retention_time [3]: 19.4 min
MIC (Klebsiella pneumoniae [7]): > 80 µM
MIC (Escherichia coli [10]): 40 µM (≈ 74.9 µg/mL)
MHC10 [13]: > 160 µM

CCCCCCCCCCCC(=O)N[C@@H](CCCCN)C(=O)N[C@@H](CCCCN)C(=O)N[C@@H](C)C(=O)N[C@@H](CC(C)C)C(=O)N[C@@H](CCCCN)C(=O)N[C@@H](CC(C)C)C(=O)N[C@@H](C)C(=O)N[C@@H](CCCCN)C(=O)N[C@@H](CCCCN)C(=O)N1CCC[C@H]1C(=O)N[C@@H](CC(C)C)C(=O)N[C@@H](CCCCN)C(=O)N[C@@H](CC(C)C)C(=O)N[C@@H](CC(C)C)C(=O)N[C@@H](CCCCN)C(N)=O (HELM PEPTIDE1{[CCCCCCCCCCCC(=O)[*:2]].K.K.A.L.K.L.A.K.K.P.L.K.L.L.K.[am]}$$$$V2.0)
MIC (Acinetobacter baumannii [1]): 2.5 µM (≈ 4.75 µg/mL)
Retention_time [3]: 20.4 min
MIC (Klebsiella pneumoniae [7]): 80 µM (≈ 152 µg/mL)
MIC (Escherichia coli [10]): 10 µM (≈ 19 µg/mL)
MHC10 [13]: 160 µM

CCCCCCCCCCCCCC(=O)N[C@@H](CCCCN)C(=O)N[C@@H](CCCCN)C(=O)N[C@@H](C)C(=O)N[C@@H](CC(C)C)C(=O)N[C@@H](CCCCN)C(=O)N[C@@H](CC(C)C)C(=O)N[C@@H](C)C(=O)N[C@@H](CCCCN)C(=O)N[C@@H](CCCCN)C(=O)N1CCC[C@H]1C(=O)N[C@@H](CC(C)C)C(=O)N[C@@H](CCCCN)C(=O)N[C@@H](CC(C)C)C(=O)N[C@@H](CC(C)C)C(=O)N[C@@H](CCCCN)C(N)=O (HELM PEPTIDE1{[CCCCCCCCCCCCCC(=O)[*:2]].K.K.A.L.K.L.A.K.K.P.L.K.L.L.K.[am]}$$$$V2.0)
MIC (Acinetobacter baumannii [1]): 1.3 µM (≈ 2.51 µg/mL)
Retention_time [3]: 21.7 min
MIC (Klebsiella pneumoniae [7]): 20 µM (≈ 38.6 µg/mL)
MIC (Escherichia coli [10]): 5 µM (≈ 9.65 µg/mL)
MHC10 [13]: 53 µM

CCCCCCCCCCCCCCCC(=O)N[C@@H](CCCCN)C(=O)N[C@@H](CCCCN)C(=O)N[C@@H](C)C(=O)N[C@@H](CC(C)C)C(=O)N[C@@H](CCCCN)C(=O)N[C@@H](CC(C)C)C(=O)N[C@@H](C)C(=O)N[C@@H](CCCCN)C(=O)N[C@@H](CCCCN)C(=O)N1CCC[C@H]1C(=O)N[C@@H](CC(C)C)C(=O)N[C@@H](CCCCN)C(=O)N[C@@H](CC(C)C)C(=O)N[C@@H](CC(C)C)C(=O)N[C@@H](CCCCN)C(N)=O (HELM PEPTIDE1{[CCCCCCCCCCCCCCCC(=O)[*:2]].K.K.A.L.K.L.A.K.K.P.L.K.L.L.K.[am]}$$$$V2.0)
MIC (Acinetobacter baumannii [1]): 1.3 µM (≈ 2.55 µg/mL)
Retention_time [3]: 22.9 min
MIC (Klebsiella pneumoniae [7]): 10 µM (≈ 19.6 µg/mL)
MIC (Escherichia coli [10]): 5 µM (≈ 9.79 µg/mL)
MHC10 [13]: 5.9 µM

NCC[C@H](O)C(=O)N[C@@H]1C[C@H](N)[C@@H](O[C@H]2O[C@H](CN)[C@@H](O)[C@H](O)[C@H]2O)[C@H](O)[C@H]1O[C@H]1O[C@H](CO)[C@@H](O)[C@H](N)[C@H]1O [AMIKACIN]
MIC (Acinetobacter baumannii [1]): 2.5 µM (≈ 1.46 µg/mL)
MIC (Klebsiella pneumoniae [7]): 2.5 µM (≈ 1.46 µg/mL)
MIC (Escherichia coli [10]): 5 µM (≈ 2.93 µg/mL)

Ac-AKLLKLLKKPLKLLK-NH2
MIC (Acinetobacter baumannii [1]): 40 µM
Activity (Escherichia coli [2]): Active
Retention_time [3]: 19.2 min
Activity (Escherichia coli [4]): Active
Activity (Klebsiella pneumoniae [5]): Active
Activity (Klebsiella pneumoniae [6]): Active
MIC (Klebsiella pneumoniae [7]): > 80 µM
Activity (Escherichia coli [8]): Active
Activity (Acinetobacter baumannii [9]): Active
MIC (Escherichia coli [10]): > 80 µM
Activity (Acinetobacter baumannii [11]): Active
Activity (Acinetobacter baumannii [12]): Active
MHC10 [13]: > 160 µM
Activity (Klebsiella pneumoniae [14]): Active

Ac-KKALKLAKKPLKLLK-NH2
MIC (Acinetobacter baumannii [1]): > 80 µM
Retention_time [3]: 15.3 min
MIC (Klebsiella pneumoniae [7]): > 80 µM
MIC (Escherichia coli [10]): > 80 µM
MHC10 [13]: > 160 µM

Ac-KLLKLLKKPLKL-NH2
MIC (Acinetobacter baumannii [1]): > 80 µM
Retention_time [3]: 18 min
MIC (Klebsiella pneumoniae [7]): > 80 µM
MIC (Escherichia coli [10]): > 80 µM
MHC10 [13]: > 160 µM

Ac-KLLKLLKKPLKLL-NH2
MIC (Acinetobacter baumannii [1]): 20 µM
Retention_time [3]: 19.4 min
MIC (Klebsiella pneumoniae [7]): > 80 µM
MIC (Escherichia coli [10]): > 80 µM
MHC10 [13]: > 160 µM

Ac-KLLKLLKKPLKLLKK-NH2
MIC (Acinetobacter baumannii [1]): 20 µM
Retention_time [3]: 18.2 min
MIC (Klebsiella pneumoniae [7]): > 80 µM
MIC (Escherichia coli [10]): > 80 µM
MHC10 [13]: > 160 µM

Ac-KLLKLLKKPLKLLKKL-NH2
MIC (Acinetobacter baumannii [1]): 5 µM
Retention_time [3]: 19.7 min
MIC (Klebsiella pneumoniae [7]): 40 µM
MIC (Escherichia coli [10]): > 80 µM
MHC10 [13]: > 160 µM

Ac-LKKLLKLLKKPLKLLK-NH2
MIC (Acinetobacter baumannii [1]): 1.3 µM
Retention_time [3]: 20.1 min
MIC (Klebsiella pneumoniae [7]): 2.5 µM
MIC (Escherichia coli [10]): > 10 µM
MHC10 [13]: 53 µM

Ac-LKLLKKPLKLLK-NH2
MIC (Acinetobacter baumannii [1]): > 80 µM
Retention_time [3]: 18 min
MIC (Klebsiella pneumoniae [7]): > 80 µM
MIC (Escherichia coli [10]): > 80 µM
MHC10 [13]: > 160 µM

Ac-LLKLLKKPLKLLK-NH2
MIC (Acinetobacter baumannii [1]): > 80 µM
Retention_time [3]: 19.8 min
MIC (Klebsiella pneumoniae [7]): > 80 µM
MIC (Escherichia coli [10]): > 80 µM
MHC10 [13]: > 160 µM
